In one data set the test system is A549 cell. Description: Cell viability assay (MTT assay), A549 cells. Format: cell-based. The method, then: (§1) A549 cell (ATCC number: CCL-185) was a non-small cell lung carcinoma cell line, expressing wild type EGFR and K-RAS mutation (G12S). H1975 cell (ATCC number: CRL-5908) was a non-small cell lung carcinoma cell line expressing EGFR L858R/T790M mutation. A549 and H1975 cells were cultured in a complete medium at 37° C., 5% CO2 within a humidified incubator (310/Thermo, Forma Scientific, Inc., Marietta, Ohio). The complete medium was RPMI-1640 medium (Gibco, Life Technologies, Grand Island, N.Y., USA) supplemented with 10% fetal bovine serum (FBS), penicillin (100 units/mL), streptomycin (100 μg/mL), and sodium bicarbonate.
(§2) The cells were plated in 96-well plates at a density of 1×10^4 cells/well for 16-20 hours. Thereafter, the cells in each well were treated by 0.1 mL of a treating agent for 24 hours. The treating agents for the wells were different in treating chemicals and their concentrations. The treating chemicals were Erlotinib, Erlotinib analogues (CE 1 to 6 and E1), and BSA-conjugated Erlotinib Analogue (E2). Next, the cells were washed with phosphate-buffered saline (PBS) and were further cultured with fresh complete medium for 2 days. Subsequently, the cells were incubated with 0.5 mg/ml of 3-(4,5-dimethylthiazol-2-yl)-2,5-diphenyltetrazolium bromide (MTT) in fresh complete medium for 4 hours, followed by removal of the medium and addition of dimethyl sulfoxide (DMSO, 0.1 mL) to thereby allow […]. The absorbance of the reduced MTT (formazan) was read on a microplate reader (VERSAmax, Molecular Devices Inc., CA) at 565 nm. […] Tables 1 and 2, and FIGS. 1 and 2 show cell viability values for A549 cell using different treating chemicals in different concentrations. Table 3 and FIG. 3 show cell viability values for H1975 cell using two treating chemicals in different concentrations.

In another data set the test system is H1975 cell. Briefly: Cell viability assay (MTT assay), H1975 cells. Format: cell-based. The conditions noted are these: treated 24 hours, cultured 2 more days, Table 3. The protocol: as §1, §2
Setting [1] is: Homo sapiens, A549, 24 h, read-out: Cell viability (%).

Structures are written as SMILES. Read-outs that look alike come from different tables or passages of the source.

What is called viability is the share of living cells, or the viability signal relative to a control.

Consider `C#Cc1cccc(Nc2ncnc3cc(OCCN)c(OCCOC)cc23)c1` [CE6, 7-(2-aminoethoxy)-N-(3-ethynylphenyl)-6-(2-methoxyethoxy) quinazolin-4-amine], for which, in the data set on A549 cell (setting [1]), the viability at 5 µM is 75.4%, the viability at 10 µM came out at 74.8%, the viability at 20 µM is 74.1% and the viability at 40 µM was found to be 62.7%. The viability at 60 µM in the data set on A549 cell (setting [1]) was 58.6%.

`C#Cc1cccc(Nc2ncnc3cc(OC)c(OCCOC)cc23)c1` [CE2, N-(3-ethynylphenyl)-7-methoxy-6-(2-methoxyethoxy) quinazolin-4-amine]: in the data set with A549 cell (setting [1]), the viability at 5 µM turned out to be 69.5%, the viability at 10 µM amounted to 60.9%, the viability at 20 µM turned out to be 62.4% and the viability at 40 µM turned out to be 64.5%. For the same compound, the viability at 60 µM in the data set with A549 cell (setting [1]) was found to be 61.6%.

As to `C#Cc1cccc(Nc2ncnc3cc(OCCI)c(OCCOC)cc23)c1` [Example E1, N-(3-ethynylphenyl)-7-(2-iodoethoxy)-6-(2-methoxyethoxy)quinazolin-4-amine], the “Cell viability in comparison with the commercial available drug (Erlotinib)” value in the data set with A549 cell (A549 cells, Tables 1 and 2, FIGS. 1 and 2) was “significantly lower cell viability”. Besides, in the data set with A549 cell (setting [1]), the viability at 5 µM was 32.8%, the viability at 10 µM came out at 30.3%, the viability at 20 µM was 26.3% and the viability at 40 µM was 28%. Also, in the data set on A549 cell (setting [1]), the viability at 60 µM was 24.3%.

Turning to `C#Cc1cccc(Nc2ncnc3cc(OCCOC(C)=O)c(OCCOC)cc23)c1` [CE3, 2-{[4-((3-ethynylphenyl)amino)-6-(2-methoxyethoxy)quinazolin-7-yl]oxy}ethyl acetate], in the data set on A549 cell (setting [1]), the viability at 5 µM was found to be 79.3%, the viability at 10 µM turned out to be 77.5%, the viability at 20 µM is 70.1% and the viability at 40 µM came out at 63%. In addition, in the data set on A549 cell (setting [1]), the viability at 60 µM came out at 59.5%.

For `C#Cc1cccc(Nc2ncnc3cc(OCCOS(C)(=O)=O)c(OCCOC)cc23)c1` [CE5, 2-{[4-((3-ethynylphenyl)amino)-6-(2-methoxyethoxy)quinazolin-7-yl]oxy}ethyl methanesulfonate], in the data set on A549 cell (setting [1]), the viability at 5 µM worked out at 73.7%, the viability at 10 µM was found to be 67.2%, the viability at 20 µM was 56.1% and the viability at 40 µM stood at 57.9%. For the same compound, the viability at 60 µM in the data set with A549 cell (setting [1]) was found to be 60.7%.

Regarding `C#Cc1cccc(Nc2ncnc3cc(OCCOC)c(OCCOC)cc23)c1` [Erlotinib, reference compound], in the data set on A549 cell (Homo sapiens, A549, 24 h, read-out: Cell viability (%), A549 cell, treating chemical 0.5 μM, treated 24 hours, cultured 2 more days, Table 2), the viability at 0.5 µM worked out at 89.3%. The viability at 1 µM in the data set on A549 cell (Homo sapiens, A549, 24 h, read-out: Cell viability (%), A549 cell, treating chemical 1 μM, treated 24 hours, cultured 2 more days, Table 2) was found to be 89.3%. For the same compound, the viability at 5 µM in the data set on A549 cell (Homo sapiens, A549, 24 h, read-out: Cell viability (%), A549 cell, treating chemical 5 μM, treated 24 hours, cultured 2 more days, Table 1) was 73.8%; in the data set with A549 cell (Homo sapiens, A549, 24 h, read-out: Cell viability (%), A549 cell, treating chemical 5 μM, treated 24 hours, cultured 2 more days, Table 2), 84.2%. The viability at 10 µM in the data set with A549 cell (Homo sapiens, A549, 24 h, read-out: Cell viability (%), A549 cell, treating chemical 10 μM, treated 24 hours, cultured 2 more days, Table 1) turned out to be 71.7%. In the data set on A549 cell (Homo sapiens, A549, 24 h, read-out: Cell viability (%), A549 cell, treating chemical 20 μM, treated 24 hours, cultured 2 more days, Table 1), the viability at 20 µM turned out to be 65.9%. Besides, in the data set on A549 cell (Homo sapiens, A549, 24 h, read-out: Cell viability (%), A549 cell, treating chemical 40 μM, treated 24 hours, cultured 2 more days, Table 1), the viability at 40 µM was determined as 61.2%. The viability at 60 µM in the data set with A549 cell (Homo sapiens, A549, 24 h, read-out: Cell viability (%), A549 cell, treating chemical 60 μM, treated 24 hours, cultured 2 more days, Table 1) was found to be 58.5%. For the same compound, the “Cell viability (%)” value in the data set on H1975 cell (treating chemical 0.5 μM) is 98.4% ± 2.7; in the data set with H1975 cell (treating chemical 1 μM), 93.1% ± 2.5; in the data set with H1975 cell (treating chemical 5 μM) it was 75.8% ± 4.5.

For `C#Cc1cccc(Nc2ncnc3cc(OC)c(OCc4ccccc4)cc23)c1` [CE1, 6-(benzyloxy)-N-(3-ethynylphenyl)-7-methoxyquinazolin-4-amine], in the data set with A549 cell (setting [1]), the viability at 5 µM was 79.9%, the viability at 10 µM was 74.7%, the viability at 20 µM was 73% and the viability at 40 µM stood at 71.6%. In the data set on A549 cell (setting [1]), the viability at 60 µM turned out to be 63.4%.

For `C#Cc1cccc(Nc2ncnc3cc(OCCO)c(OCCOC)cc23)c1` [CE4, 2-{[4-((3-ethynylphenyl)amino)-6-(2-methoxyethoxy)quinazolin-7-yl]oxy}ethanol], in the data set with A549 cell (setting [1]), the viability at 5 µM is 74.5%, the viability at 10 µM came to 68.4%, the viability at 20 µM amounted to 63.1% and the viability at 40 µM worked out at 60.7%. In the data set with A549 cell (setting [1]), the viability at 60 µM was 57.8%.

Values taken from patent US10251886B1, “4-anilinoquinazoline derivative and albumin conjugates thereof” (National Chiao Tung University, priority 2018, dated 2019).
